In brackets after ≈: the same amount, converted by molar mass. Activity calls are given as the source filed them. No cut-off for these calls is given here.
Key:
Caenorhabditis elegans = experiment: Nematicidal activity against Caenorhabditis elegans at 100 ug/ml; format: functional, organism-based
Pyricularia grisea = experiment: Antimicrobial activity against Magnaporthe grisea assessed as inhibition of conidial germination after 16 hrs by inverted microscopic analysis; format: functional
Fusarium graminearum = experiment: Antimicrobial activity against Fusarium graminearum assessed as inhibition of conidial germination after 16 hrs by inverted microscopic analysis; format: functional
Botrytis cinerea = experiment: Antimicrobial activity against Botrytis cinerea assessed as inhibition of conidial germination after 16 hrs by inverted microscopic analysis; format: functional
Phytophthora infestans = experiment: Antimicrobial activity against Phytophthora infestans assessed as inhibition of conidial germination after 16 hrs by inverted microscopic analysis; format: functional
Penicillium chrysogenum = experiment: Antimicrobial activity against Penicillium notatum assessed as inhibition of conidial germination after 16 hrs by inverted microscopic analysis; format: functional
Paecilomyces variotii = experiment: Antimicrobial activity against Paecilomyces variotii assessed as inhibition of conidial germination after 16 hrs by inverted microscopic analysis; format: functional
Rhizomucor miehei = experiment: Antimicrobial activity against Mucor miehei assessed as inhibition of conidial germination after 16 hrs by inverted microscopic analysis; format: functional
Brevibacillus brevis = experiment: Antimicrobial activity against Bacillus brevis at 50 ug/disk by agar diffusion assay; format: functional; conditions: read-out: IZ
Bacillus subtilis = experiment: Antimicrobial activity against Bacillus subtilis at 50 ug/disk by agar diffusion assay; format: functional; conditions: read-out: IZ
Eremothecium coryli = experiment: Antimicrobial activity against Nematospora coryli at 50 ug/disk by agar diffusion assay; format: functional; conditions: read-out: IZ
Escherichia coli = experiment: Antimicrobial activity against Escherichia coli K-12 by serial dilution test; format: functional
[1] = tested on: Enterobacter cloacae subsp. dissolvens; experiment: Antimicrobial activity against Enterobacter dissolvens by serial dilution test; format: functional
Proteus vulgaris = experiment: Antimicrobial activity against Proteus vulgaris by serial dilution test; format: functional
[2] = Cytotoxicity against human HeLaS3 cells assessed as reduction in cell proliferation; format: functional, cell-based; conditions: HeLa S3
Lepidium sativum [3] = experiment: […] against Lepidium sativum assessed as seed germination up to 300 ug/ml; format: functional, organism-based
Setaria italica [4] = experiment: […] against Setaria italica assessed as seed germination up to 300 ug/ml; format: functional, organism-based
Meloidogyne incognita = experiment: Nematicidal activity against Meloidogyne incognita at 100 ug/ml; format: functional, organism-based
Lepidium sativum [5] = experiment: […] against Lepidium sativum assessed as inhibition of seedling growth up to 300 ug/ml; format: functional, organism-based
Setaria italica [6] = experiment: […] against Setaria italica assessed as inhibition of seedling growth up to 300 ug/ml; format: functional, organism-based

SMILES | Activity (Caenorhabditis elegans) | IC100 (Pyricularia grisea) [µg/mL] | IC100 (Fusarium graminearum) [µg/mL] | IC100 (Botrytis cinerea) [µg/mL] | IC100 (Phytophthora infestans) [µg/mL] | IC100 (Penicillium chrysogenum) [µg/mL] | IC100 (Paecilomyces variotii) [µg/mL] | IC100 (Rhizomucor miehei) [µg/mL] | zone of inhibition at 50 µg/disc (Brevibacillus brevis) [mm] | zone of inhibition at 50 µg/disc (Bacillus subtilis) [mm] | zone of inhibition at 50 µg/disc (Eremothecium coryli) [mm] | MIC (Escherichia coli) [µg/mL] | MIC [1] [µg/mL] | MIC (Proteus vulgaris) [µg/mL] | IC50 [2] [µg/mL] | Activity (Lepidium sativum [3]) | Activity (Setaria italica [4]) | Activity (Meloidogyne incognita) | Activity (Lepidium sativum [5]) | Activity (Setaria italica [6])
COc1cc(O)c2c(c1)C(=O)C1=C(C2=O)C(O)OC(C)=C1 (configuration not stated) [ASCOMYCONE B] | inactive | 1 | 0.5 | 5 | 5 | 10 | >50 | 10 | 11 | 10 | 13 | > 50 | > 50 | > 50 | 5 (≈ 17.3 µM) | inactive | inactive | inactive | inactive | inactive
CO/C=C1/C(=O)c2c(O)cc(OC)cc2C(=O)C1(O)CC(C)=O (configuration not stated) [ASCOMYCONE C] | inactive | 2.5 | 2.5 | 50 | 5 | 15 | >50 | >50 | 7 | 0 | 11 | > 50 | > 50 | > 50 | 50 (≈ 156 µM) | inactive | inactive | inactive | inactive | inactive
COc1cc(O)c2c(c1)C(=O)C1=C(C2=O)C(OC)OC(C)=C1 (configuration not stated) [ASCOMYCONE A] | inactive |  |  | >50 |  | >50 | >50 | 50 | 14 | 11 | 0 | > 50 | > 50 | > 50 | 5 (≈ 16.5 µM) | inactive | inactive | inactive | inactive | inactive

From ChEMBL document CHEMBL1154148, “Ascomycones A-C, heptaketide metabolites from an unidentified ascomycete” (J Nat Prod, 2008)
